In PubChem BioAssay (NCI):
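The compound was tested at five concentrations on cells cultured in 96-well plates, with a 48-hour exposure period. TGI denotes the concentration required for complete inhibition of growth.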

What was measured:
Test in all cases: inhibition of tumour cell growth, NCI panel, 48 h
SK-MEL-2 melanoma = test system: SK-MEL-2 melanoma
HL-60(TB) leukemia = test system: HL-60(TB) leukemia
ACHN renal = test system: ACHN renal
COLO 205 colon = test system: COLO 205 colon
SK-MEL-28 melanoma = test system: SK-MEL-28 melanoma
SK-MEL-5 melanoma = test system: SK-MEL-5 melanoma
CCRF-CEM leukemia = test system: CCRF-CEM leukemia
OVCAR-3 ovarian = test system: OVCAR-3 ovarian
OVCAR-8 ovarian = test system: OVCAR-8 ovarian
M14 melanoma = test system: M14 melanoma
IGROV1 ovarian = test system: IGROV1 ovarian
SF-295 CNS = test system: SF-295 CNS
LOX IMVI melanoma = test system: LOX IMVI melanoma
HS 578T breast = test system: HS 578T breast
A498 renal = test system: A498 renal
UO-31 renal = test system: UO-31 renal
MDA-N = test system: MDA-N
T-47D breast = test system: T-47D breast
SF-268 CNS = test system: SF-268 CNS
SR leukemia = test system: SR leukemia
HT29 colon = test system: HT29 colon
TK-10 renal = test system: TK-10 renal
U251 CNS = test system: U251 CNS
PC-3 prostate = test system: PC-3 prostate
K-562 leukemia = test system: K-562 leukemia
CAKI-1 renal = test system: CAKI-1 renal
MDA-MB-231 breast = test system: MDA-MB-231 breast
NCI-H23 lung = test system: NCI-H23 lung
786-0 renal = test system: 786-0 renal
NCI-H522 lung = test system: NCI-H522 lung
RPMI-8226 leukemia = test system: RPMI-8226 leukemia
A549 NSCLC = test system: A549 NSCLC
OVCAR-5 ovarian = test system: OVCAR-5 ovarian
KM12 colon = test system: KM12 colon
SF-539 CNS = test system: SF-539 CNS
SW-620 colon = test system: SW-620 colon
RXF 393 renal = test system: RXF 393 renal
UACC-62 melanoma = test system: UACC-62 melanoma
EKVX NSCLC = test system: EKVX NSCLC
HCT-15 colon = test system: HCT-15 colon
MOLT-4 leukemia = test system: MOLT-4 leukemia
MDA-MB-435 = test system: MDA-MB-435
NCI-H460 lung = test system: NCI-H460 lung
HCC-2998 colon = test system: HCC-2998 colon
DU-145 prostate = test system: DU-145 prostate
SNB-75 CNS = test system: SNB-75 CNS
MCF7 breast = test system: MCF7 breast
SN12C renal = test system: SN12C renal
OVCAR-4 ovarian = test system: OVCAR-4 ovarian
UACC-257 melanoma = test system: UACC-257 melanoma
SK-OV-3 ovarian = test system: SK-OV-3 ovarian
BT-549 breast = test system: BT-549 breast
SNB-19 CNS = test system: SNB-19 CNS
NCI-H226 lung = test system: NCI-H226 lung
NCI/ADR-RES ovarian = test system: NCI/ADR-RES ovarian
HCT-116 colon = test system: HCT-116 colon
MALME-3M melanoma = test system: MALME-3M melanoma

Measured: TGI

CC(C)c1cc(Cl)nc(Cl)n1
> 100 µM: SK-MEL-2 melanoma | HL-60(TB) leukemia | ACHN renal | COLO 205 colon | SK-MEL-28 melanoma | SK-MEL-5 melanoma | CCRF-CEM leukemia | OVCAR-3 ovarian | OVCAR-8 ovarian | M14 melanoma | IGROV1 ovarian | SF-295 CNS | LOX IMVI melanoma | HS 578T breast | A498 renal | UO-31 renal | MDA-N | T-47D breast | SF-268 CNS | SR leukemia | HT29 colon | TK-10 renal | U251 CNS | PC-3 prostate | K-562 leukemia | CAKI-1 renal | MDA-MB-231 breast | NCI-H23 lung | 786-0 renal | NCI-H522 lung | RPMI-8226 leukemia | A549 NSCLC | OVCAR-5 ovarian | KM12 colon | SF-539 CNS | SW-620 colon | RXF 393 renal | UACC-62 melanoma | EKVX NSCLC | HCT-15 colon | MOLT-4 leukemia | MDA-MB-435 | NCI-H460 lung | HCC-2998 colon | DU-145 prostate | SNB-75 CNS | MCF7 breast | SN12C renal | OVCAR-4 ovarian | UACC-257 melanoma | SK-OV-3 ovarian | BT-549 breast | SNB-19 CNS | NCI-H226 lung | NCI/ADR-RES ovarian | HCT-116 colon

CSC1=NN(c2ccccc2)C(=O)C1=C(SC)SC
53.8 µM: HCT-116 colon
82 µM: SNB-19 CNS
25.5 µM: NCI-H522 lung
49.2 µM: NCI/ADR-RES ovarian
62.7 µM: RXF 393 renal
91.7 µM: HCC-2998 colon
45.9 µM: K-562 leukemia
46.7 µM: UACC-257 melanoma
83.7 µM: SR leukemia
94.3 µM: SNB-75 CNS
26 µM: COLO 205 colon
47 µM: PC-3 prostate | RPMI-8226 leukemia
64.6 µM: A549 NSCLC
29.8 µM: SK-MEL-5 melanoma
39.6 µM: MALME-3M melanoma
37 µM: UO-31 renal
73.4 µM: SK-MEL-2 melanoma
70.3 µM: T-47D breast | SF-539 CNS
51.8 µM: HL-60(TB) leukemia
53 µM: MDA-MB-231 breast
76 µM: HCT-15 colon
55.7 µM: NCI-H23 lung
74.6 µM: TK-10 renal
43.5 µM: HT29 colon
43.9 µM: CAKI-1 renal
97.8 µM: SN12C renal
35.4 µM: A498 renal
66.7 µM: UACC-62 melanoma
66.1 µM: LOX IMVI melanoma
87.6 µM: U251 CNS
39.9 µM: NCI-H226 lung
> 100 µM: SK-MEL-28 melanoma | CCRF-CEM leukemia | OVCAR-3 ovarian | M14 melanoma | HS 578T breast | MDA-N | SF-268 CNS | 786-0 renal | OVCAR-5 ovarian | KM12 colon | SW-620 colon | EKVX NSCLC | MOLT-4 leukemia | MDA-MB-435 | DU-145 prostate | OVCAR-4 ovarian | SK-OV-3 ovarian | BT-549 breast
65.9 µM: OVCAR-8 ovarian
49.6 µM: MCF7 breast
41.4 µM: NCI-H460 lung
